From patent US20100248390A1, “COMPOSITIONS AND METHODS FOR IDENTIFYING LIGANDS OF ODORANT RECEPTORS” (DUKE UNIVERSITY, priority 2009, published 2010) come the findings set out here.

As usually defined, the EC50 is the concentration giving half of the maximal effect.

SMILES strings stand for the structures. Like-named read-outs stand apart in the source and are kept apart here.

Experiment [1] deals with T1, human odorant receptors (ORs) (Homo sapiens, UniProt Q9P1Q5).
T1 construct: OR open reading frames were amplified from genomic DNA; expressed in transfected cells; host or cells: Hana3A cells, co-transfected with RTP1S, CRE-luciferase and pRL-SV40
T1 sequence (Q9P1Q5 1-309): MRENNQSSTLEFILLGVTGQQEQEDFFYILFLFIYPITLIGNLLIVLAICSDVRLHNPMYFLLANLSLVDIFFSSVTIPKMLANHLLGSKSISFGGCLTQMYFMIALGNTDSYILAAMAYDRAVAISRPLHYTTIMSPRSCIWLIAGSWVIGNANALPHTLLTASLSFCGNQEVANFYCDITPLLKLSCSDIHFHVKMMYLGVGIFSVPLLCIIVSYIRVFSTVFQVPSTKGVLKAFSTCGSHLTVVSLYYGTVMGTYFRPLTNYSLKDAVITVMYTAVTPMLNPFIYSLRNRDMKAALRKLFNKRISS
Kind of experiment: CRE-luciferase assay of odorant receptor activation (Dual-Glo, Hana3A cells, RTP1S), dose-response EC50. The class given is cell-based. In outline: (§1)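 Hana3A cells were co-transfected with Rho-tagged OR, RTP1S, CRE-luciferase and pRL-SV40, then exposed to odorant in CD293 medium for 4 hrs at 37° C. Firefly luminescence was divided by Renilla and normalized as (LN−Lmin)/(Lmax−Lmin) per plate set. Each dose was tested at least three times, and EC50 came from sigmoidal fits.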

The target in experiment [2] is T2, human odorant receptors (ORs) (Homo sapiens, UniProt Q9Y3N9).
T2 construct: OR open reading frames were amplified from genomic DNA; expressed in transfected cells; host or cells: Hana3A cells, co-transfected with RTP1S, CRE-luciferase and pRL-SV40
T2 sequence (Q9Y3N9 1-320): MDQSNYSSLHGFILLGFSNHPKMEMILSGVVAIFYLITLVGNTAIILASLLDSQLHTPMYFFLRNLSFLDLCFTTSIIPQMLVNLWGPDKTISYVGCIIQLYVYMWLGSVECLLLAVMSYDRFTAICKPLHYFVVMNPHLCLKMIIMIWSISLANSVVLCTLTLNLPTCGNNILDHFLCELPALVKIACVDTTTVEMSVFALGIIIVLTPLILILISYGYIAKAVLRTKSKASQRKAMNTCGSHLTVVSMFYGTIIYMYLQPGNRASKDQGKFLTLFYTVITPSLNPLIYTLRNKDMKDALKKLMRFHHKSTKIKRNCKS
The description is as above. The class given is cell-based. An outline of the steps: as §1

[3] abbreviates: receptor OR1A1, read-out: log EC50 (Table 4 value), OR1A1 (converted).
[4] abbreviates: receptor OR2W1, read-out: log EC50 (Table 4 value), OR2W1 (converted).
[5] abbreviates: receptor OR2W1, read-out: log EC50 of odorant at OR2W1 (0 = no response) (converted).
[6] abbreviates: receptor OR1A1, 0 = no response.
The mark [7] stands for this setting: receptor OR2W1, 0 = no response.
Where [8] appears, read: receptor OR1A1, read-out: log EC50 of odorant at OR1A1 (0 = no response) (converted).
The mark [9] stands for this setting: receptor OR1A1, 0 = no response, read-out: log EC50, OR1A1 (converted).
Where [10] appears, read: receptor OR2W1, 0 = no response, read-out: log EC50, OR2W1 (converted).

Regarding `CC(=O)OCc1ccccc1` [Benzyl acetate], the concentration for a half-maximal effect (EC50) is 406 µM in experiment [1] (setting [3]) and 16.4 µM in experiment [2] (setting [4]). Regarding `CCCCCCCC(=O)O` [Octanoic Acid], the EC50 in experiment [2] (setting [5]) is 14.2 µM. The same measure, in the same setting: for `CCCCCCCCC(=O)O` [Nonanoic acid] the value was 189 µM. For `C=C(C)[C@@H]1CC[C@@H](C)C(=O)C1` [(+)-Dihydrocarvone], in experiment [1] (setting [6]), the “log EC50, OR1A1” value is −4.992. Also, the “log EC50, OR2W1” value in experiment [2] (setting [7]) is on record as −4.755. With `C=CCOC(=O)Cc1ccccc1` [Allyl phenylacetate], the values for the half-maximal effective concentration (EC50) in experiment [1] and in experiment [2] were 7.6 µM and 15.4 µM, respectively. With `CCCCCCCCCS` [Nonanethiol], the half-maximal effective concentration (EC50) in experiment [1] (setting [8]) was 571 µM; in experiment [2] (setting [5]), 86.1 µM.

In the case of `CCCCCCCCCCO` [1-Decanol], the EC50 in experiment [1] is 828 µM; in experiment [2], 43.2 µM. With `CC(C)=CCCC(C)CCO` (single isomer, unassigned; (-)) [(−)-b-C ? inedol], the EC50 in experiment [1] (setting [9]) is 91.4 µM; in experiment [2] (setting [10]), 7.8 µM.

Turning to `C=C(C)C1CC=C(C)C(=O)C1` (single isomer, unassigned; (-)) [(−)-Carvone], the “log EC50, OR1A1” value in experiment [1] (setting [6]) is on record as −5.765. Besides, in experiment [2] (setting [7]), the “log EC50, OR2W1” value was −4.657. `O=c1ccc2ccccc2o1` [Coumarin]: the half-maximal effective concentration (EC50) in experiment [2] (setting [4]) is 86.1 µM. Consider `CCCCCCCCS` [Octanethiol], for which the EC50 in experiment [1] (setting [8]) was 594 µM; in experiment [2] (setting [5]), 92.7 µM. Regarding `CC(=O)c1ccccc1` [Acetophenone], the EC50 in experiment [2] (setting [4]) is 42.5 µM. Consider `CC(C)=CCC/C(C)=C/CO` [Getaniol], for which the EC50 in experiment [1] (setting [3]) is 341 µM; in experiment [2] (setting [4]), 18.4 µM. As to `CC(=O)Oc1ccccc1` [Phenyl acetate], the EC50 in experiment [2] (setting [5]) was 84.9 µM.

As to `O=C1CCOc2ccccc21` [4-Chromanone], the EC50 was 462 µM in experiment [1] (setting [3]) and 91 µM in experiment [2] (setting [4]). Turning to `CCCCCCCO` [1-Heptanol], the half-maximal effective concentration (EC50) in experiment [1] (setting [9]) was 971 µM; in experiment [2] (setting [10]) it was 14.8 µM. With `C=C(C)[C@H]1CC=C(C)C(=O)C1` [(+)-Carvone], in experiment [1] (setting [6]), the “log EC50, OR1A1” value is listed as −5.035. For the same compound, the “log EC50, OR2W1” value in experiment [2] (setting [7]) is −4.646. In the case of `CCCCCC1=C(C)CCC1=O` [Dihydroiasmone], the “log EC50 (Table 4 value), OR1A1” value in experiment [1] (receptor OR1A1) was −7.242. In addition, the “log EC50 (Table 4 value), OR2W1” value in experiment [2] (receptor OR2W1) is reported as −4.246.
